# *1 amine or outer side, *2 acyl side, *3 side chain or, on linkers, in order; H or OH if unused. Where a SMILES comes first, the peptide text is derived from it. Bridges are numbered along the chain shown (N, C = ends). Biphenyl(4,4'-CH2)2 = c1cc(-c2ccc(C[*:2])cc2)ccc1C[*:1]
# How the values were obtained:
# [1] = assay type: physicochemical; settings: pH 7
# [2] = target: galectin-3 (Gal-3) carbohydrate-binding domain; settings: read-out: Kd to Gal-3; cited from earlier work
# [3] = target: galectin-3 (Gal-3) (Homo sapiens, UniProt P17931); assay type: binding
# [4] = circular dichroism; settings: 10 mM Tris-HCl; pH 7; 25 °C; 50 uM
# Sequence of galectin-3 (Gal-3) (P17931 whole entry): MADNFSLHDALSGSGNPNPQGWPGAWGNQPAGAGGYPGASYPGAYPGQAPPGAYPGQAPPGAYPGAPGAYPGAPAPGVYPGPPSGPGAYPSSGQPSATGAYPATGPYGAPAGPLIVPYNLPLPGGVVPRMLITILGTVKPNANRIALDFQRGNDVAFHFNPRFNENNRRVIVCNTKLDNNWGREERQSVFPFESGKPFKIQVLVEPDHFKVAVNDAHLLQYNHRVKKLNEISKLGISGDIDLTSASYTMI
compound,measurement,setting,value
H-GAAECAAKEAACKAAG-NH2 [control],helicity (α-helical content),[1],3.4%
CC(=O)N[C@H]1C(O)O[C@H](CO)[C@@H](O[C@@H]2O[C@H](CO)[C@H](O)[C@H](O)[C@H]2O)[C@@H]1O (some centres unmarked) [N-acetyllactosamine],Kd,[2],200 µM
H-GAQECPPKEPACKKAG-GGGK-(flu)-NH2 (sidechain bridge or staple) [p8-flu-BP],effect of excess lactose on fluorescent intensity change with Gal-3,[3],did not significantly affect
H-GAPECKRKEYECKKAG-GGGK-(flu)-NH2 [p10-flu],Gal-3 binding of non-stapled peptide (fluorescent intensity change),[3],did not show any Gal-3 binding
H-GAQECVYKEQSCKSAG-GGGK-(flu)-NH2 [p4-flu],Gal-3 binding of non-stapled peptide (fluorescent intensity change),[3],did not show significant fluorescent changes
"CC(C)[C@@H]1NC(=O)[C@@H](NC(=O)[C@H](CCC(=O)O)NC(=O)[C@H](CCC(N)=O)NC(=O)[C@H](C)NC(=O)CN)CSCc2ccc(cc2)-c2ccc(cc2)CSC[C@@H](C(=O)N[C@@H](CCCCN)C(=O)N[C@@H](CO)C(=O)N[C@@H](C)C(=O)NCC(N)=O)NC(=O)[C@H](CO)NC(=O)[C@H](CCC(N)=O)NC(=O)[C@H](CCC(=O)O)NC(=O)[C@H](CCCCN)NC(=O)[C@H](Cc2ccc(O)cc2)NC1=O (H-GAQECVYKEQSCKSAG-NH2; linker 5-12 via Biphenyl(4,4'-CH2)2)",helicity,[4],32%
"C[C@H](NC(=O)CN)C(=O)N[C@@H](CCC(N)=O)C(=O)N[C@@H](CCC(=O)O)C(=O)N[C@H]1CSCc2ccc(cc2)-c2ccc(cc2)CSC[C@@H](C(=O)N[C@@H](CCCCN)C(=O)N[C@@H](CCCCN)C(=O)N[C@@H](C)C(=O)NCC(N)=O)NC(=O)[C@H](C)NC(=O)[C@@H]2CCCN2C(=O)[C@H](CCC(=O)O)NC(=O)[C@H](CCCCN)NC(=O)[C@@H]2CCCN2C(=O)[C@@H]2CCCN2C1=O (H-GAQECPPKEPACKKAG-NH2; linker 5-12 via Biphenyl(4,4'-CH2)2)",helicity,[4],14%
"C[C@H](NC(=O)[C@H](CCCCN)NC(=O)[C@H](CCCCN)NC(=O)[C@@H]1CSCc2ccc(cc2)-c2ccc(cc2)CSC[C@H](NC(=O)[C@H](CCC(=O)O)NC(=O)[C@@H]2CCCN2C(=O)[C@H](C)NC(=O)CN)C(=O)N[C@@H](CCCCN)C(=O)N[C@@H](CCCNC(=N)N)C(=O)N[C@@H](CCCCN)C(=O)N[C@@H](CCC(=O)O)C(=O)N[C@@H](Cc2ccc(O)cc2)C(=O)N[C@@H](CCC(=O)O)C(=O)N1)C(=O)NCC(N)=O (H-GAPECKRKEYECKKAG-NH2; linker 5-12 via Biphenyl(4,4'-CH2)2)",helicity,[4],30%

# — PMC7097893 (ACS Omega, 2020)
